Source: the NIST ThermoML archive (doi:10.1016/j.jct.2009.08.009)

Assay: xn = mol fraction of the nth substance listed
Details: 101 kPa, Liquid; for viscosity: Capillary tube (Ostwald / Ubbelohde) method; for speed of sound: Sing-around technique in a fixed-path interferometer; for mass density: Vibrating tube method

CCOCCOCCO [3,6-dioxa-1-octanol] + CCCCCCCCO
Details | mass density [kg/m3] | speed of sound [m/s] | viscosity [mPa·s]
293.15 K, x1 = 0.0518 | 832.339 | 1364.1 | 7.468
293.15 K, x1 = 0.1011 | 839.204 | 1363.5 | 6.913
293.15 K, x1 = 0.1625 | 848.155 | 1363.1 | 6.159
293.15 K, x1 = 0.1944 | 853.018 | 1363.7 | 5.913
293.15 K, x1 = 0.2538 | 862.076 | 1364.5 | 5.872
293.15 K, x1 = 0.3165 | 872.254 | 1365.7 | 5.104
293.15 K, x1 = 0.3685 | 880.933 | 1370.8 | 4.837
293.15 K, x1 = 0.4975 | 904.111 | 1377.4 | 4.361
293.15 K, x1 = 0.6048 | 925.139 | 1387.7 | 4.08
293.15 K, x1 = 0.7202 | 949.653 | 1399.5 | 3.846
293.15 K, x1 = 0.8165 | 971.878 | 1415.1 | 3.739
293.15 K, x1 = 0.9144 | 996.047 | 1349.4 | 3.66
293.15 K, x1 = 1 | – | – | 3.626
298.15 K, x1 = 0.0518 | 828.835 | 1347.1 | 6.198
298.15 K, x1 = 0.1011 | 835.659 | 1346.5 | 6.03
298.15 K, x1 = 0.1625 | 844.559 | 1346.3 | 5.405
298.15 K, x1 = 0.1944 | 849.396 | 1346.7 | 5.188
298.15 K, x1 = 0.2538 | 858.398 | 1347.6 | 4.799
298.15 K, x1 = 0.3165 | 868.522 | 1348.9 | 4.489
298.15 K, x1 = 0.3685 | 877.154 | 1354.1 | 4.279
298.15 K, x1 = 0.4975 | 900.211 | 1360.7 | 3.918
298.15 K, x1 = 0.6048 | 921.137 | 1370.9 | 3.612
298.15 K, x1 = 0.7202 | 945.535 | 1382.7 | 3.431
298.15 K, x1 = 0.8165 | 991.74 | 1398.2 | 3.328
298.15 K, x1 = 0.9144 | 938.234 | 1332.2 | 3.277
298.15 K, x1 = 1 | – | – | 3.278
303.15 K, x1 = 0.0518 | 825.317 | 1330.3 | 5.429
303.15 K, x1 = 0.1011 | 832.097 | 1329.8 | 5.005
303.15 K, x1 = 0.1625 | 840.951 | 1329.5 | 4.636
303.15 K, x1 = 0.1944 | 845.762 | 1329.6 | 4.404
303.15 K, x1 = 0.2538 | 854.713 | 1330.1 | 4.295
303.15 K, x1 = 0.3165 | 864.78 | 1330.9 | 3.845
303.15 K, x1 = 0.3685 | 873.364 | 1332.3 | 3.67
303.15 K, x1 = 0.4975 | 896.3 | 1337.5 | 3.396
303.15 K, x1 = 0.6048 | 917.122 | 1343.9 | 3.141
303.15 K, x1 = 0.7202 | 941.409 | 1354.3 | 3.045
303.15 K, x1 = 0.8165 | 963.444 | 1381.3 | 2.904
303.15 K, x1 = 0.9144 | 987.41 | 1315 | 2.848
303.15 K, x1 = 1 | – | – | 2.862
308.15 K, x1 = 0.0518 | 821.777 | 1313.7 | 4.542
308.15 K, x1 = 0.1011 | 828.522 | 1313.2 | 4.219
308.15 K, x1 = 0.1625 | 837.324 | 1312.9 | 3.897
308.15 K, x1 = 0.1944 | 842.106 | 1312.9 | 3.781
308.15 K, x1 = 0.2538 | 851.006 | 1313.5 | 3.548
308.15 K, x1 = 0.3165 | 861.019 | 1314.5 | 3.327
308.15 K, x1 = 0.3685 | 869.558 | 1315.7 | 3.169
308.15 K, x1 = 0.4975 | 892.371 | 1320.9 | 2.928
308.15 K, x1 = 0.6048 | 913.092 | 1327.4 | 2.721
308.15 K, x1 = 0.7202 | 937.267 | 1337.7 | 2.6
308.15 K, x1 = 0.8165 | 959.204 | 1349.3 | 2.532
308.15 K, x1 = 0.9144 | 983.069 | 1364.5 | 2.493
308.15 K, x1 = 1 | – | – | 2.507

CCCCCCCCO [octan-1-ol] + CCOCCOCCO
x2 = 0
Details | viscosity [mPa·s]
293.15 K | 8.309
298.15 K | 7.143
303.15 K | 5.969
308.15 K | 5.009

CCOCCOCCO [3,6-dioxa-1-octanol] + CCCCCCCCCCO
Details | mass density [kg/m3] | speed of sound [m/s] | viscosity [mPa·s]
293.15 K, x1 = 0.0607 | 836.419 | 1394.1 | 11.4
293.15 K, x1 = 0.109 | 841.997 | 1392.3 | 10.28
293.15 K, x1 = 0.1561 | 847.628 | 1390.6 | 9.367
293.15 K, x1 = 0.2105 | 854.439 | 1388.9 | 8.743
293.15 K, x1 = 0.2599 | 862.044 | 1387.4 | 7.761
293.15 K, x1 = 0.3089 | 867.859 | 1386.6 | 7.383
293.15 K, x1 = 0.3533 | 874.329 | 1385.8 | 6.336
293.15 K, x1 = 0.4923 | 896.636 | 1385.3 | 5.731
293.15 K, x1 = 0.5986 | 916.267 | 1387.2 | 5.141
293.15 K, x1 = 0.7153 | 940.786 | 1392.6 | 4.525
293.15 K, x1 = 0.7918 | 959.008 | 1398.6 | 4.186
293.15 K, x1 = 0.901 | 988.518 | 1412.6 | 3.899
293.15 K, x1 = 1 | – | – | 3.626
298.15 K, x1 = 0.0607 | 832.969 | 1377 | 9.658
298.15 K, x1 = 0.109 | 838.521 | 1375.3 | 8.774
298.15 K, x1 = 0.1561 | 844.112 | 1373.6 | 8.059
298.15 K, x1 = 0.2105 | 850.88 | 1371.8 | 7.574
298.15 K, x1 = 0.2599 | 858.441 | 1370.5 | 6.868
298.15 K, x1 = 0.3089 | 864.217 | 1369.6 | 6.353
298.15 K, x1 = 0.3533 | 870.65 | 1368.9 | 6.008
298.15 K, x1 = 0.4923 | 892.825 | 1368.4 | 5.027
298.15 K, x1 = 0.5986 | 912.348 | 1370.3 | 4.479
298.15 K, x1 = 0.7153 | 936.739 | 1375.7 | 4.005
298.15 K, x1 = 0.7918 | 954.872 | 1381.7 | 3.729
298.15 K, x1 = 0.901 | 984.244 | 1395.6 | 3.449
298.15 K, x1 = 1 | – | – | 3.278
303.15 K, x1 = 0.0607 | 829.51 | 1360.1 | 8.114
303.15 K, x1 = 0.109 | 835.031 | 1358.4 | 7.312
303.15 K, x1 = 0.1561 | 840.589 | 1356.8 | 6.739
303.15 K, x1 = 0.2105 | 847.315 | 1355.1 | 6.387
303.15 K, x1 = 0.2599 | 854.826 | 1353.7 | 5.858
303.15 K, x1 = 0.3089 | 860.567 | 1352.8 | 5.366
303.15 K, x1 = 0.3533 | 866.962 | 1352.1 | 5.083
303.15 K, x1 = 0.4923 | 889.005 | 1351.7 | 4.338
303.15 K, x1 = 0.5986 | 908.42 | 1353.7 | 3.859
303.15 K, x1 = 0.7153 | 932.679 | 1358.9 | 3.458
303.15 K, x1 = 0.7918 | 950.728 | 1364.9 | 3.235
303.15 K, x1 = 0.901 | 979.965 | 1378.8 | 3.021
303.15 K, x1 = 1 | – | – | 2.862
308.15 K, x1 = 0.0607 | 826.037 | 1343.3 | 6.698
308.15 K, x1 = 0.109 | 831.525 | 1341.6 | 6.116
308.15 K, x1 = 0.1561 | 837.051 | 1340.1 | 5.838
308.15 K, x1 = 0.2105 | 843.734 | 1338.4 | 5.38
308.15 K, x1 = 0.2599 | 851.204 | 1336.9 | 4.826
308.15 K, x1 = 0.3089 | 856.908 | 1336.2 | 4.528
308.15 K, x1 = 0.3533 | 863.255 | 1335.5 | 4.319
308.15 K, x1 = 0.4923 | 885.17 | 1335.1 | 3.697
308.15 K, x1 = 0.5986 | 904.477 | 1337 | 3.346
308.15 K, x1 = 0.7153 | 928.613 | 1342.4 | 2.978
308.15 K, x1 = 0.7918 | 946.566 | 1348.3 | 2.817
308.15 K, x1 = 0.901 | 975.664 | 1362.1 | 2.67
308.15 K, x1 = 1 | – | – | 2.507
